The record followed here is patent US5789434A, “Derivatives of substituted 4-biarylbutyric acid as matrix metalloprotease inhibitors” (priority 1995, dated 1998).

Assay [1] deals with T1, MMP-3 (Homo sapiens, UniProt P08254).
T1 construct: Truncated Prostromelysin-257 was expressed in a soluble form in E.coli; made in house; host or cells: E. coli
The assay is described as follows: Primary Thiopeptilide MMP-3 Inhibition Assay. The conditions noted are these: for IC50: pH 6.5, 13 nM stromelysin, x (n) = average of n determinations, read-out: MMP-3 Thiopep. IC50; for inhibition at 5 µM: read-out: MMP-3 Thiopep. % inhibition. The format is biochemical.
Experimental: Enzyme: recombinant stromelysin expressed in E.coli and purified as described above. […] The protocols for the assay of compounds as stromelysin inhibitors was the same as that used for MMP-9 except that the assay buffer was 50 mM MES, pH 6.5 containing 150 mM NaCl, 10 mM CaCl2, 0.005% Brij, and 1% DMSO.

Assay [2] has as its target T2, MMP-9 (Homo sapiens, UniProt P14780).
T2 construct: from tissue; host or cells: human polymorphonuclear leukocytes (PMN) from whole blood (New York Blood Center), PMA-stimulated supernatant
The assay is described as follows: Thiopeptilide MMP-9 Inhibition Assay. Type of assay: biochemical. Conditions: for IC50: pH 6.5, x (n) = average of n determinations, read-out: MMP-9: Thiopep. IC50; for inhibition at 5 µM: read-out: MMP-9: Thiopep. % inhibition.

T2 sequence (P14780 107-707 limits assumed): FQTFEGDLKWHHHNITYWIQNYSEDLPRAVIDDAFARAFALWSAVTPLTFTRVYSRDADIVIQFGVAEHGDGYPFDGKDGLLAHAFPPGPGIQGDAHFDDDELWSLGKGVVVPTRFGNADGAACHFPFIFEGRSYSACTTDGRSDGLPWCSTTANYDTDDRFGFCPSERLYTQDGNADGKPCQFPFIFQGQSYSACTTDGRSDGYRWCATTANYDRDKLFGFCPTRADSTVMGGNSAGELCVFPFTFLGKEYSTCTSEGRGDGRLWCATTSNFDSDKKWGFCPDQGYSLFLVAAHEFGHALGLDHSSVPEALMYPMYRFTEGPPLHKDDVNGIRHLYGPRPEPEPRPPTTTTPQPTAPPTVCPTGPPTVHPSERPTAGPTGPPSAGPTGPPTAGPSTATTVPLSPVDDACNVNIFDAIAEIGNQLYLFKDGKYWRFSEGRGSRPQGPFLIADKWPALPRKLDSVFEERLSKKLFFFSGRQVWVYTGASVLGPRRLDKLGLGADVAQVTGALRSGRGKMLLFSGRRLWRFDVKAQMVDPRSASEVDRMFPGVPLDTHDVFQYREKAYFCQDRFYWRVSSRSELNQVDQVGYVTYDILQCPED
T1 sequence (P08254 100-274 limits assumed): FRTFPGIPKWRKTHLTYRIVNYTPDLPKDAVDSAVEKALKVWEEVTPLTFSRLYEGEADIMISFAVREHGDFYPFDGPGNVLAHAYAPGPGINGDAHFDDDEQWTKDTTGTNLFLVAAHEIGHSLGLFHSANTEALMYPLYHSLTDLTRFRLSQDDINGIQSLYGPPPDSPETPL

The term IC50 denotes the concentration needed to halve the response being measured. In the case of `O=C(CC(CCCc1ccccc1)C(=O)O)c1ccc(-c2ccc(O)cc2)cc1` (stereo not drawn) [Example 83, [1,1'-Biphenyl]-4-butanoic acid, 4'-hydroxy-γ-oxo-α-(3-phenylpropyl)-], the figures for the IC50 in assay [1] and in assay [2] were 720 nM and 1400 nM, respectively.
Consider `CC(C)(C)C(=O)SCC(CC(=O)O)C(=O)c1ccc(-c2ccc(Cl)cc2)cc1` (stereo not drawn) [Example 256, [1,1'-Biphenyl]-4-butanoic acid, 4'-chloro-β-[[(2,2-dimethyl-1-oxopropyl)thio]methyl]-γ-oxo-], for which the IC50 was determined as 600 nM in assay [1] and 3000 nM in assay [2].
By inhibition is commonly meant the relative decrease from the control value, in per cent. For `O=C(O)CCC(=O)c1ccc(-c2ccc(F)cc2F)cc1` [Example 11, [1,1'-Biphenyl]-4-butanoic acid, 2',4'-difluoro-γ-oxo-, reference compound], the inhibition at 5 µM in assay [1] turned out to be 14%; in assay [2] it was 0%.
The matching figures for `O=C(O)[C@@H]1C[C@H]1C(=O)c1ccc(-c2ccc(Cl)cc2)cc1` (relative stereo) [Example 293, Cyclopropanecarboxylic acid, 2-[(4'-chloro[1,1'-biphenyl]-4-yl)carbonyl]-, trans-, reference compound]: 16% and 0%.
Consider `O=C(CC(CCCc1ccccc1)C(=O)O)c1ccc(-c2ccc(F)c(Cl)c2)cc1` (stereo not drawn) [Example 74, [1,1'-Biphenyl]-4-butanoic acid, 3'-chloro-4'-fluoro-γ-oxo-α-(3-phenylpropyl)-], for which the IC50 in assay [1] is 2300 nM. Further, in assay [2], the inhibition at 5 µM came out at 38%.
Consider `CC1=C(C)C[C@@H](C(=O)c2ccc(-c3ccc(Cl)cc3)cc2)[C@H](C(=O)O)C1` (relative stereo) [Example 327, 3-Cyclohexene-1-carboxylic acid, 6-[(4'-chloro[1,1'-biphenyl]-4-yl)carbonyl]-3,4-dimethyl-, trans-], for which the inhibition at 5 µM in assay [1] worked out at 55%. Also, in assay [2], the IC50 was found to be 12000 nM.
For the compound `O=C(CC(CSC(=O)c1ccccc1)C(=O)O)c1ccc(-c2ccc(Cl)cc2)cc1` (stereo not drawn) [Example 202, [1,1'-Biphenyl]-4-butanoic acid, α-[(benzoylthio)methyl]-4'-chloro-γ-oxo-], the results for the IC50 in assay [1] and in assay [2] were 250 nM and 500 nM, respectively.
Take `O=C(c1ccc(-c2ccc(Cl)cc2)cc1)[C@H]1C[C@H]1C(=O)O` (relative stereo) [Example 292, Cyclopropanecarboxylic acid, 2-[(4'-chloro[1,1'-biphenyl]-4-yl)carbonyl]-, cis-, reference compound]: the inhibition at 5 µM in assay [1] turned out to be 21%; in assay [2], 12%.
Regarding `O=C(CC(C(=O)O)N1CCSCC1)c1ccc(-c2ccc(Cl)cc2)cc1` (stereo not shown) [Example 259], the IC50 in assay [1] came to 2600 nM. Moreover, in assay [2], the inhibition at 5 µM turned out to be 37%.
In the case of `O=C(c1ccc(-c2ccc(Cl)cc2)cc1)[C@H]1CCC[C@H]1C(=O)O` (relative stereo) [Example 288, Cyclopentanecarboxylic acid, 2-[(4'-chloro[1,1'-biphenyl]-4-yl)carbonyl]-, cis-], the values for the inhibition at 5 µM in assay [1] and in assay [2] were 40% and 46%, respectively.
Regarding `O=C(CC(CSc1cccc(F)c1)C(=O)O)c1ccc(-c2ccc(Cl)cc2)cc1` (stereo not drawn) [Example 243, [1,1'-Biphenyl]-4-butanoic acid, 4'-chloro-α[[(3-fluorophenyl)thio]methyl]-γ-oxo-], the IC50 came to 360 nM in assay [1] and 850 nM in assay [2].
In the case of `O=C(O)CCc1ccc(SCC(CC(=O)c2ccc(-c3ccc(Cl)cc3)cc2)C(=O)O)cc1` (stereo not drawn) [Example 225, [1,1'-Biphenyl]-4-butanoic acid, α-[[[4-(2-carboxyethyl)phenyl]thio]methyl]-4'-chloro--γ-oxo-], the IC50 in assay [1] came out at 310 nM; in assay [2], 550 nM.
Consider `CC(C)CC(CC(=O)c1ccc(-c2ccc(F)cc2)cc1)C(=O)O` (stereo not drawn) [Example 15, [1,1'-Biphenyl]-4-butanoic acid, 4'-fluoro-α-(2-methylpropyl)-γ-oxo-], for which the IC50 in assay [1] was found to be 2000 nM. Also, the inhibition at 5 µM in assay [2] stood at 0%.
With `Cc1ccccc1S[C@H]1CC[C@@H](C(=O)c2ccc(-c3ccc(Cl)cc3)cc2)[C@H]1C(=O)O` (relative stereo) [Example 305, Cyclopentanecarboxylic acid, 2-[(4'-chloro[1,1'-biphenyl]-4-yl)carbonyl]-5-[(2-methylphenyl)thio]-, (1α,2α,5α)-], the IC50 stood at 470 nM in assay [1] and 1800 nM in assay [2].
On the same counts, the results for `O=C(CC(CSc1ccccc1CO)C(=O)O)c1ccc(-c2ccc(Cl)cc2)cc1` (stereo not drawn) [Example 217, [1,1'-Biphenyl]-4-butanoic acid, 4'-chloro-α-[[[2-(hydroxymethyl)phenyl]thio]methyl]-γ-oxo-] are 83 nM and 245 nM.
For the compound `COCCOCC(CC(=O)c1ccc(-c2ccc(Cl)cc2)cc1)C(=O)O` (stereo not shown) [Example 191, [1,1'-Biphenyl]-4-butanoic acid, 4'-chloro-=-[(2-methoxyethoxy)methyl]-γ-oxo-], the IC50 in assay [1] stood at 330 nM. The inhibition at 5 µM in assay [2] was 62%.
Turning to `O=C(CC(CCCc1ccccc1)C(=O)O)c1ccc(-c2cc(Cl)cc(Cl)c2)cc1` (stereo not drawn) [Example 66, [1,1'-Biphenyl]-4-butanoic acid, 3',5=-dichloro-γ-oxo-α-(3-phenylpropyl)-], the inhibition at 5 µM in assay [1] came out at 7%; in assay [2], 11%.
Consider `O=C(CC(SCc1ccccc1)C(=O)O)c1ccc(-c2ccc(Cl)cc2)cc1` (stereo not drawn) [Example 252, [1,1'-Biphenyl]-4-butanoic acid, 4'-chloro-γ-oxo-α-[(phenylmethyl)thio]-], for which the figures for the IC50 in assay [1] and in assay [2] were 293 nM and 2900 nM, respectively.
The matching figures for `O=C(O)[C@@H]1CCC[C@H]1C(=O)c1ccc(-c2ccc(Cl)cc2)cc1` (relative stereo) [Example 289, Cyclopentanecarboxylic acid, 2-[(4'-chloro[1,1'-biphenyl]-4-yl)carbonyl]-, trans-]: 348 nM and 910 nM.
`CC(C)C[C@@H](CC(=O)c1ccc(-c2ccc(Cl)cc2)cc1)C(=O)O` [Example 2, [1,1'-Biphenyl]-4-butanoic acid, 4'-chloro-α-(2-methylpropyl)-γ-oxo-, (S)-]: the values for the IC50 in assay [1] and in assay [2] were 270 nM and 2200 nM, respectively.
Regarding `O=C(O)[C@@H]1CCCC[C@H]1C(=O)c1ccc(-c2ccc(Cl)cc2)cc1` (relative stereo) [Example 285, Cyclohexanecarboxylic acid, 2-[(4'-chloro[1,1'-biphenyl]-4-yl)carbonyl]-, trans-], in assay [1], the IC50 was found to be 2500 nM. For the same compound, the inhibition at 5 µM in assay [2] was found to be 21%.
Regarding `O=C(CC(CSC1CCCCC1)C(=O)O)c1ccc(-c2ccc(Cl)cc2)cc1` (stereo not drawn) [Example 214, [1,1'-Biphenyl]-4-butanoic acid, 4'-chloro-α-[(cyclohexylthio)methyl]-γ-oxo-], the IC50 was 170 nM in assay [1] and 2200 nM in assay [2].
The matching figures for `O=C(O)CC(CSc1cccs1)C(=O)c1ccc(-c2ccc(Cl)cc2)cc1` (stereo not drawn) [Example 255, [1,1'-Biphenyl]-4-butanoic acid, 4'-chloro-γ-oxo-β-[(2-thienylthio)methyl]-]: 950 nM and 2000 nM.
For `CC(C)CC(CC(=O)c1ccc(-c2ccc(Cl)c(Cl)c2)cc1)C(=O)O` (stereo not drawn) [Example 64, [1,1'-Biphenyl]-4-butanoic acid, 3',4'-dichloro-α-(2-methylpropyl)-γ-oxo-], the IC50 in assay [1] turned out to be 300 nM. In addition, the inhibition at 5 µM in assay [2] was 29%.
For `O=C(CC(CCCc1ccccc1)C(=O)O)c1ccc(-c2ccc(I)cc2)cc1` (stereo not drawn) [Example 40, [1,1'-Biphenyl]-4-butanoic acid, 4'-iodo-γ-oxo-α-(3-phenylpropyl)-], the results for the IC50 in assay [1] and in assay [2] were 121 nM and 50 nM, respectively.
The matching figures for `CCCOc1ccc(-c2ccc(C(=O)CC(CCCc3ccccc3)C(=O)O)cc2)cc1` (stereo not drawn) [Example 84, [1,1'-Biphenyl]-4-butanoic acid, γ-oxo-α-(3-phenylpropyl)-4'-propoxy-]: 150 nM and 100 nM.
On the same counts, the results for `Cc1ccccc1S[C@H]1CC[C@H](C(=O)c2ccc(-c3ccc(Cl)cc3)cc2)[C@H]1C(=O)O` (relative stereo) [Example 306, Cyclopentanecarboxylic acid, 2-[(4'-chloro[1,1'-biphenyl]-4-yl)carbonyl]-5-[(2-methylphenyl)thio]-, (1α,2β,5α)-] are 150 nM and 550 nM.
Consider `C=C(CC(O)c1ccc(-c2ccc(Cl)cc2)cc1)C(=O)O` (stereo not drawn) [Example 38, [1,1'-Biphenyl]-4-butanoic acid, 4'-chloro-γ-hydroxy-α-methylene-, reference compound], for which the IC50 in assay [1] stood at 10000 nM. Besides, the inhibition at 5 µM in assay [2] is 10%.
As for `CCC(CC(=O)c1ccc(-c2ccc(Cl)cc2)cc1)C(=O)O` (stereo not drawn) [Example 117, [1,1'-Biphenyl]-4-butanoic acid, 4'-chloro-α-ethyl-γ-oxo-], the IC50 was determined as 590 nM in assay [1] and 3800 nM in assay [2].
On the same counts, the results for `O=C(CCC(CCCc1ccccc1)C(=O)O)c1ccc(-c2ccc(Cl)cc2)cc1` (stereo not drawn) [Example 341, [1,1'-Biphenyl]-4-pentanoic acid, 4'-chloro-δ-oxo-α-(3-phenylpropyl)-] are 2400 nM and 3800 nM.
On the same counts, the results for `CCOc1ccc(-c2ccc(C(=O)CC(CCCc3ccccc3)C(=O)O)cc2)cc1` (stereo not drawn) [Example 75, [1,1'-Biphenyl]-4-butanoic acid, 4'-ethoxy-γ-oxo-α-(3-phenylpropyl)-] are 78 nM and 82 nM.
The matching figures for `O=C(O)CC1(CC(=O)c2ccc(-c3ccc(Cl)cc3)cc2)CCCC1` [Example 336, Cyclopentaneactic acid, 1-[2-(4'-chloro[1,1'-biphenyl]-4-yl)-2-oxoethyl]-]: 1400 nM and 600 nM.
